Drawing on patent US9328131B2, “Benzimidazolium compounds” (Boehringer Ingelheim International GmbH, priority 2013, dated 2016), this text covers Papp A→B, Papp B→A and IC50 for 5 compounds.

Structures are written as SMILES. A value given as a limit tells only on which side of the number the result lay.

A short description of series [1]: Permeability in CALU-3 cells. The series is classed as in vitro ADME. Particulars: human, CALU-3 monolayers, pH 7.4, 37° C., 10 μM compound. Here is the method:
Permeability in CALU-3 cells:
Permeability measurements across polarized, confluent CALU-3 cell monolayers grown on permeable filter supports are used to provide information on the potential of a compound to pass the lung epithelium. Apparent permeability coefficients (Papp) of the compounds across the CALU-3 cell monolayers are measured (pH 7.4, 37° C.) in apical-to-basal (AB) and basal-to-apical (BA) transport direction.
CALU-3 cells (1−2×10^5 cells/1 cm^2 area) are seeded on filter inserts (Costar transwell polycarbonate filters, 0.4 μm pore size) and cultured (DMEM) for 10-12 days until tight monolayers are formed. Compounds of interest are dissolved in appropriate solvent (DMSO, 10 mM stock solution). Stock solutions are diluted with HTP-4 buffer (128.13 mM NaCl, 5.36 mM KCl, 1 mM MgSO4, 1.8 mM CaCl2, 4.17 mM NaHCO3, 1.19 mM Na2HPO4×7H2O, 0.41 mM NaH2PO4×H2O, 15 mM HEPES, 20 mM glucose, 0.25% BSA, pH 7.4) to prepare the transport solutions (10 μM compound, final DMSO<=0.5%). The transport solution (TL) is applied to the apical or basolateral donor side for measuring A-B or B-A permeability (3 filter replicates), respectively. The receiver side contains the same buffer as the donor side. After 30 min of accommodation, samples are collected at the start t0=0 min and at the end of the experiment tn=90 min from the donor and at 0, 30, 60, and 90 min also from the receiver chamber. Volume removed is replenished by HTP-4 buffer. The compound concentration in the samples is measured by HPLC-MS/MS or scintillation counting. The permeability coefficient (Papp) and efflux ratio are calculated according to: Papp[cm/s]=(concentration receiver[nM]*volume receiver[mL]/time interval[sec])*(1/filter area)*(1/donor concentration[nM])
With example compounds given above, the following permeability values were determined in the CALU-3 cells assay: […]

For series [2], the system named is Mouse kidney M-1 cells. Nature of the series: Ussing Chamber assay: inhibition of amiloride sensitive short circuit current. The series is classed as cell-based. Particulars: compound in the apical solution, 37° C. Here is the method: Ussing Chamber: Mouse kidney M-1 cells were cultivated in DMEM containing 5% FCS and 5 μM dexamethasone for 10 to 12 days on polyester transwell filters. Filters were inserted into a teflon-coated well-plate which fit into the ussing chamber system. Prior to measurement the medium of M−1 cells was replaced with Caco-2 transport buffer (Invitrogen, Germany). During measurements, the Ussing chamber temperature was kept at 37° C. Short circuit currents (l_sc) were measured in the voltage-clamp mode with the software package Lab View for data acquisition and analysis. The transepithelial electrical resistance (TEER) was determined by the application of voltage steps of ±5 mV every 5 sec. Compounds were administered at a final concentration of 3 μM or at increasing concentrations (1-3-10 μM) to the apical solution. At the end of each experiment the amiloride sensitive l_SC was measured by adding 3 μM amiloride to the apical compartment. Results are expressed as inhibition in percent of the amiloride effect or as IC50.
With the example compounds given above, the following IC50 values were determined in the Ussing Chamber assay: […]

In the case of `CCOP(=O)(OCC)c1ccc(CCC[n+]2c(CNC(=O)c3nc(Cl)c(N)nc3N)n(CC)c3cc(OC)ccc32)cc1.O=C([O-])C(F)(F)F` [Example 1.1], the Papp A→B at 90 min, 10 μM in series [1] (apical-to-basal) amounted to 1.6 nm/s. The Papp B→A at 90 min, 10 μM in series [1] (basal-to-apical) was found to be 2.8 nm/s. In series [2], this compound yielded an IC50 of 2 nM.

Compound `CCn1c(CNC(=O)c2nc(Br)c(N)nc2N)[n+](CCOCCOCCO)c2ccc(OC)cc21.O=C([O-])C(F)(F)F` [Example 2.1] yielded a Papp A→B at 90 min, 10 μM in series [1] (apical-to-basal) of 2.3 nm/s. In series [1] (basal-to-apical), the Papp B→A at 90 min, 10 μM was 4 nm/s. For the same compound, in series [2], half-maximal inhibition (IC50) was put at 1 nM.

`CC[n+]1c(CNC(=O)c2nc(Cl)c(N)nc2N)n(C2CCN(C(C)=O)CC2)c2ccccc21.O=C[O-]` [Example 3.1] yielded a Papp A→B at 90 min, 10 μM in series [1] (apical-to-basal) of 17 nm/s. This compound also returned a Papp B→A at 90 min, 10 μM in series [1] (basal-to-apical) of 4.5 nm/s. The compound also yielded an IC50 in series [2] of 5 nM.

`CC[n+]1c(CNC(=O)c2nc(Cl)c(N)nc2N)n(CCCP(=O)(O)O)c2ccc(OC)cc21.O=C([O-])C(F)(F)F` [Example 4.1] yielded a Papp A→B at 90 min, 10 μM in series [1] (apical-to-basal) below 3.4 nm/s. The Papp B→A at 90 min, 10 μM in series [1] (basal-to-apical) was 0.8 nm/s. In addition, the IC50 in series [2] was 56 nM.

In series [1] (apical-to-basal), `CCOP(=O)([O-])CCCn1c(CNC(=O)c2nc(Cl)c(N)nc2N)[n+](CC)c2cc(OC)ccc21` [Example 5.1] returned a Papp A→B of 1.7 nm/s. Also, in series [1] (basal-to-apical), the Papp B→A was 0.5 nm/s. This compound also yielded an IC50 in series [2] of 29 nM.

A word on the Papp A→B: it is the apparent permeability from the apical to the basolateral side of a cell layer. A lower Papp A→B goes with poor permeation. One may read the Papp B→A as how fast a substance crosses the layer from the basolateral side. Usually IC50 stands for the concentration needed to halve the response being measured.
